{"source": "paper PMC3913017", "about": "“A Method for Fast Assessment of OP/CB Exposure in the Japanese Quail (Coturnix coturnix japonica) Using Combined Esterases Enzyme Activity as Biomarkers” (Enzyme Research, 2014)", "key": {"[1]": {"target": "T1, cholinesterase (ChE) in blood plasma (Coturnix japonica, UniProt A0A8C2YFF6)", "T1 sequence (A0A8C2YFF6 30-604)": "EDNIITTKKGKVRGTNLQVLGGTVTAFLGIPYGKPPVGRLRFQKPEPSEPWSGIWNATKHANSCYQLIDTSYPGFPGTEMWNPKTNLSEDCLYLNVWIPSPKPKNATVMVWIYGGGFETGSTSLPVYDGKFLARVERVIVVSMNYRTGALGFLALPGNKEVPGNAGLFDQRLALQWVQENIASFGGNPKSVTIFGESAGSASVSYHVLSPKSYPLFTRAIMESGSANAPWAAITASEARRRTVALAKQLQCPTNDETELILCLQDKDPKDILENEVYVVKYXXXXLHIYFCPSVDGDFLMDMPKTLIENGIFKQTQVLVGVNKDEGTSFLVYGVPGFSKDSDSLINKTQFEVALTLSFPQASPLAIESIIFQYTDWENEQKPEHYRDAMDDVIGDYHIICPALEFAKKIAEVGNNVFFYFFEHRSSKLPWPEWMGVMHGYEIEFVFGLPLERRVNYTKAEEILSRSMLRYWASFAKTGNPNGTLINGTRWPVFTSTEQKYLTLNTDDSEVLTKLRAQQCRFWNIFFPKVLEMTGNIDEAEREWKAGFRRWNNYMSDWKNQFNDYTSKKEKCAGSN", "test": "Inhibition rate constant (ki), blood plasma ChE (thiocholine substrates)", "conditions": "for ki value, range: blood plasma, range over the substrates AcTChI, BuTChI, PrTChI and PSA", "protocol": "(§1) Enzyme activity was determined at room temperature 25°C by the Ellman method [18], and using thioacetate (PSA) for measuring CbE enzyme activity or by using thiocholine (e.g., AcTChI, BuTChI, or PrTChI substrate) for measuring ChE enzyme activities [19]. […] Substrate solutions (final concentration 2 mM for PrTChI and PSA, while 1 mM for AcTChI and BuTChI) were prepared and used on the same day and kept on ice during use. Enzyme activities were calculated using an extinction coefficient of 13.6 mM^−1 cm^−1 for TNB [21] and are expressed as units (1 U ≡ 1 μmol ≡ 1000 nmol of substrate hydrolysed per min) per g wet weight of liver homogenate, while for plasma they are expressed as U/mL [2]. All measurements in this paper were carried out in duplicate.\nControls that were incubated with phosphate buffer pH 8.0 were included when appropriated. Blanks were also run at each selected inhibitor for each based on the absorbance tested. Then the enzyme activity was determined as described in above. The decrease in esterases enzyme activity over different times (1–60 min) at room temperature 25°C was detected. Then the data of inhibition time courses at different times after inhibition was fitted with a single exponential decay using SigmaPlot 11. However, the percentage inhibition was calculated from the ratio between the activity of an exposed sample and unexposed controls by the following formula: (1) % Inhibition =Esterases enzyme activity with inhibitor/Esterases enzyme activity without inhibitor×100."}, "quails": {"tested_on": "quails", "conditions": "cited from earlier work"}, "[2]": {"target": "carboxylesterase (CbE) in blood plasma", "test": "In vitro inhibition of blood plasma CbE by CB/OP pesticides (Ellman, PSA substrate)", "format": "biochemical, Japanese quail (Coturnix coturnix japonica)", "conditions": "for IC50: substrate PSA, 30 min 25°C, mean ± SE, read-out: Half maximal inhibitory concentration (IC50), PSA", "protocol": "To obtain plasma, 1 mL blood samples were added to anticoagulant (heparin, 3.7 mg, final concentration 0.1%) in 5 mL centrifuge tubes. Plasma was separated by centrifugation at 5000 g for 10 min.\nas §1\nThen esterases enzyme activity was measured as explained in the above section. For the measurement of half maximal inhibitory concentrations (IC50), samples were inhibited for 30 min at room temperature 25°C with appropriate concentration of CB or OP pesticide compounds, depending on preliminary range finding tests. Controls that were incubated with phosphate buffer pH 8.0 were included. Then the enzyme activity was determined as described above. Then the data were fitted with nonlinear regression analysis using a single exponential decay by SigmaPlot 11 (Systat software, Inc.)."}, "[3]": {"tested_on": "carboxylesterase (CbE) in blood plasma", "test": "Inhibition rate constant (ki), blood plasma CbE (PSA substrate)", "format": "biochemical, Japanese quail (Coturnix coturnix japonica)", "conditions": "4 mM methomyl, 2 mM parathion, malathion, trichlorfon, 1–60 min, 25°C, mean ± SE", "experimental": "Blanks were also run at each selected inhibitor for each based on the absorbance tested. Then the enzyme activity was determined as described in above. The decrease in esterases enzyme activity over different times (1–60 min) at room temperature 25°C was detected. Then the data of inhibition time courses at different times after inhibition was fitted with a single exponential decay using SigmaPlot 11. However, the percentage inhibition was calculated from the ratio between the activity of an exposed sample and unexposed controls by the following formula: (1) % Inhibition =[…]."}, "[4]": {"target": "T1, cholinesterase (ChE) in blood plasma", "test": "In vivo oral exposure 48 h, plasma ChE inhibition", "set-up": "species or system Japanese quail (Coturnix coturnix japonica)", "experimental": "The extent of inhibition of esterases enzyme activity was also assessed following in vivo exposure of test of quail by oral dosing (n = 15) were exposed to test solutions of parathion, malathion, methomyl, trichlorfon, or control (water) in cages. […] Samples were prepared and assayed as explained in the above section."}, "[5]": {"target": "T1, cholinesterase (ChE) in blood plasma", "test": "Substrate hydrolysis and kinetics, blood plasma ChE", "format": "biochemical, Japanese quail (Coturnix coturnix japonica)", "conditions": "for reaction rate of substrate hydrolysis, plasma: blood plasma, 1 mM AcTChI, BuTChI, 2 mM PrTChI", "protocol": "(§2) To obtain plasma, 1 mL blood samples were added to anticoagulant (heparin, 3.7 mg, final concentration 0.1%) in 5 mL centrifuge tubes. Plasma was separated by centrifugation at 5000 g for 10 min. The liver was removed using a scalpel, cut into small pieces (2-3 mm^3), and rinsed until the blood was fully removed. The liver was then placed on ice in 5 mL tubes (5 mm internal diameter) and homogenized using a mechanically driven homogenizer with phosphate buffer (0.1 M, pH 8) with a 1 : 10 ratio (w/v) of 1 part of liver tissue to 9 parts of buffer and a speed of 10000 rpm. Homogenisation required 3 min; after every one min or so of homogenization, the mixture was rested for 30 s to allow cooling. The homogenate was then centrifuged at 5000 g for 10 min and the supernatant fraction was retained and used for subsequent analyses.\nas §1"}, "[6]": {"tested_on": "cholinesterase (ChE) in liver homogenate", "test": "Substrate hydrolysis, liver homogenate ChE", "format": "biochemical, Japanese quail (Coturnix coturnix japonica)", "conditions": "1 mM AcTChI, BuTChI, 2 mM PrTChI", "protocol": "as §2\n(§3) Enzyme activity was determined at room temperature 25°C by the Ellman method [18], and using thioacetate (PSA) for measuring CbE enzyme activity or by using thiocholine (e.g., AcTChI, BuTChI, or PrTChI substrate) for measuring ChE enzyme activities [19]. […] Enzyme activities were calculated using an extinction coefficient of 13.6 mM^−1 cm^−1 for TNB [21] and are expressed as units (1 U ≡ 1 μmol ≡ 1000 nmol of substrate hydrolysed per min) per g wet weight of liver homogenate, while for plasma they are expressed as U/mL [2]. […]"}, "[7]": {"tested_on": "carboxylesterase (CbE) in liver homogenate", "test": "Substrate hydrolysis and kinetics, liver homogenate CbE (PSA)", "format": "biochemical, Japanese quail (Coturnix coturnix japonica)", "protocol": "as §2, §1"}, "[8]": {"tested_on": "carboxylesterase (CbE) in blood plasma", "test": "Substrate hydrolysis, blood plasma CbE (PSA)", "format": "biochemical, Japanese quail (Coturnix coturnix japonica)", "conditions": "2 mM PSA", "protocol": "as §2, §3"}, "ChE enzyme": {"tested_on": "ChE enzyme", "test": "Incubation with general serine esterase inhibitor, ChE activity", "format": "biochemical, Japanese quail (Coturnix coturnix japonica)", "conditions": "3 mM inhibitor"}, "CbE enzyme": {"tested_on": "CbE enzyme", "test": "Incubation with general serine esterase inhibitor, CbE activity", "format": "biochemical, Japanese quail (Coturnix coturnix japonica)", "conditions": "3 mM inhibitor"}, "[9]": {"conditions": "read-out: inhibition of control activity"}}, "note": "Read-outs that look alike come from different tables or passages of the source.", "data": [{"smiles": "CCOP(=S)(OCC)Oc1ccc([N+](=O)[O-])cc1", "note": "[Parathion, O,O-diethyl O-(4-nitrophenyl) phosphorothioate]", "values": [{"measurement": "ki value, range", "setting": "[1]", "value": "0.4532 to 0.8233", "unit": "min⁻¹"}, {"measurement": "median lethal dose (LD50)", "setting": "quails; oral, quails", "value": 6, "unit": "mg/kg"}, {"measurement": "IC50", "setting": "[2]", "value": "220 ± 60", "unit": "µM"}, {"measurement": "Rate constant inhibition (ki), PSA", "setting": "[3]", "value": "453.2 ± 5.6 × 10^−3 min^−1"}]}, {"smiles": "COP(=O)(OC)C(O)C(Cl)(Cl)Cl", "note": "(stereo not shown) [Trichlorfon, dimethyl (2,2,2-trichloro-1-hydroxyethyl) phosphonate]", "values": [{"measurement": "ki value, range", "setting": "[1]", "value": "0.3451 to 0.9769", "unit": "min⁻¹"}, {"measurement": "median lethal dose (LD50)", "setting": "quails; oral, quails", "value": 22, "unit": "mg/kg"}, {"measurement": "inhibition at 11 mg/kg", "setting": "[4]; read-out: % inhibition compared with the control, plasma, AcTChI", "value": 12.1, "unit": "%"}, {"measurement": "inhibition at 11 mg/kg", "setting": "[4]; read-out: % inhibition compared with the control, plasma, BuTChI", "value": 33.2, "unit": "%"}, {"measurement": "inhibition at 11 mg/kg", "setting": "[4]; read-out: % inhibition compared with the control, plasma, PrTChI", "value": 11.7, "unit": "%"}, {"measurement": "IC50", "setting": "[2]", "value": "510 ± 90", "unit": "µM"}, {"measurement": "Rate constant inhibition (ki), PSA", "setting": "[3]", "value": "976.9 ± 8.9 × 10^−3 min^−1"}]}, {"smiles": "CCCC(=O)SCC[N+](C)(C)C.[I-]", "note": "[BuTChI, (2-mercaptoethyl) trimethylammonium iodide butyrate]", "values": [{"measurement": "Vmax", "setting": "[5]; blood plasma ChE, Figure 4(a)", "value": 1011, "unit": "nmol/min/mL"}, {"measurement": "Km", "setting": "[5]; blood plasma ChE, substrate 0.125–2 mM, read-out: Km (apparent Michaelis constant)", "value": 394, "unit": "µM"}, {"measurement": "reaction rate of substrate hydrolysis, plasma", "setting": "[5]", "value": 1321.5, "unit": "nmol/min/mL"}, {"measurement": "reaction rate of substrate hydrolysis, liver homogenate", "setting": "[6]", "value": 304.5, "unit": "nmol/min/g"}]}, {"smiles": "CC(=O)Sc1ccccc1", "note": "[PSA, thiophenyl acetate]", "values": [{"measurement": "Vmax", "setting": "[7]; liver CbE, Figure 4(b)", "value": 1195, "unit": "nmol/min/g"}, {"measurement": "Km", "setting": "[7]; liver CbE, substrate 0.25–4 mM, read-out: apparent Km", "value": 713, "unit": "µM"}, {"measurement": "reaction rate of substrate hydrolysis, liver homogenate", "setting": "[7]; liver homogenate, 2 mM PSA", "value": 1.765, "unit": "µmol/min/g"}, {"measurement": "reaction rate of substrate hydrolysis, plasma", "setting": "[8]", "value": 68.9, "unit": "nmol/min/mL"}]}, {"smiles": "O=S(=O)(F)Cc1ccccc1", "note": "[phenylmethanesulfonyl fluoride]", "values": [{"measurement": "level of ChE enzyme activity after incubation", "setting": "ChE enzyme", "value": "insignificant levels"}, {"measurement": "level of CbE enzyme activity after incubation", "setting": "CbE enzyme", "value": "insignificant levels"}]}, {"smiles": "CNC(=O)ON=C(C)SC", "note": "[Methomyl, S-methyl-N((methylcarbamoyl)oxy) thioacetimidate]", "values": [{"measurement": "ki value, range", "setting": "[1]", "value": "0.1224 to 0.5674", "unit": "min⁻¹"}, {"measurement": "inhibition at 4000 µM", "setting": "[1]; [9]", "value": "83 to 99", "unit": "%"}, {"measurement": "median lethal dose (LD50)", "setting": "quails; in vivo, po", "value": 24.2, "unit": "mg/kg"}, {"measurement": "CbE enzyme activity sensitivity to inhibition", "setting": "[2]; in vitro, PSA, Figure 10(a)", "value": "insensitive to the CB methomyl except at high concentrations"}, {"measurement": "IC50", "setting": "[2]", "value": "610 ± 20", "unit": "µM"}, {"measurement": "Rate constant inhibition (ki), PSA", "setting": "[3]", "value": "345.3 ± 12.4 × 10^−3 min^−1"}]}, {"smiles": "CCC(=O)SCC[N+](C)(C)C.[I-]", "note": "[PrTChI, (2-mercaptoethyl) trimethylammonium iodide propionate]", "values": [{"measurement": "reaction rate of substrate hydrolysis, plasma", "setting": "[5]", "value": 211.9, "unit": "nmol/min/mL"}, {"measurement": "reaction rate of substrate hydrolysis, liver homogenate", "setting": "[6]", "value": 113.9, "unit": "nmol/min/g"}]}, {"smiles": "CCOC(=O)CC(SP(=S)(OC)OC)C(=O)OCC", "note": "(stereo not shown) [Malathion, S-1,2-bis(ethoxycarbonyl) ethyl O,O-dimethyl phosphorodithioate]", "values": [{"measurement": "ki value, range", "setting": "[1]", "value": "0.0358 to 0.1756", "unit": "min⁻¹"}, {"measurement": "inhibition at 2000 µM", "setting": "[1]; [9]", "value": "83 to 99", "unit": "%"}, {"measurement": "median lethal dose (LD50)", "setting": "quails; oral, quails", "value": 400, "unit": "mg/kg"}, {"measurement": "IC50", "setting": "[2]", "value": "910 ± 400", "unit": "µM"}, {"measurement": "Rate constant inhibition (ki), PSA", "setting": "[3]", "value": "175.6 ± 16.0 × 10^−3 min^−1"}]}]}
